Assay [1] has as its target T1, Serine/threonine-protein kinase 36 (Homo sapiens) (UniProt Q9NRP7).
T1 sequence (whole entry): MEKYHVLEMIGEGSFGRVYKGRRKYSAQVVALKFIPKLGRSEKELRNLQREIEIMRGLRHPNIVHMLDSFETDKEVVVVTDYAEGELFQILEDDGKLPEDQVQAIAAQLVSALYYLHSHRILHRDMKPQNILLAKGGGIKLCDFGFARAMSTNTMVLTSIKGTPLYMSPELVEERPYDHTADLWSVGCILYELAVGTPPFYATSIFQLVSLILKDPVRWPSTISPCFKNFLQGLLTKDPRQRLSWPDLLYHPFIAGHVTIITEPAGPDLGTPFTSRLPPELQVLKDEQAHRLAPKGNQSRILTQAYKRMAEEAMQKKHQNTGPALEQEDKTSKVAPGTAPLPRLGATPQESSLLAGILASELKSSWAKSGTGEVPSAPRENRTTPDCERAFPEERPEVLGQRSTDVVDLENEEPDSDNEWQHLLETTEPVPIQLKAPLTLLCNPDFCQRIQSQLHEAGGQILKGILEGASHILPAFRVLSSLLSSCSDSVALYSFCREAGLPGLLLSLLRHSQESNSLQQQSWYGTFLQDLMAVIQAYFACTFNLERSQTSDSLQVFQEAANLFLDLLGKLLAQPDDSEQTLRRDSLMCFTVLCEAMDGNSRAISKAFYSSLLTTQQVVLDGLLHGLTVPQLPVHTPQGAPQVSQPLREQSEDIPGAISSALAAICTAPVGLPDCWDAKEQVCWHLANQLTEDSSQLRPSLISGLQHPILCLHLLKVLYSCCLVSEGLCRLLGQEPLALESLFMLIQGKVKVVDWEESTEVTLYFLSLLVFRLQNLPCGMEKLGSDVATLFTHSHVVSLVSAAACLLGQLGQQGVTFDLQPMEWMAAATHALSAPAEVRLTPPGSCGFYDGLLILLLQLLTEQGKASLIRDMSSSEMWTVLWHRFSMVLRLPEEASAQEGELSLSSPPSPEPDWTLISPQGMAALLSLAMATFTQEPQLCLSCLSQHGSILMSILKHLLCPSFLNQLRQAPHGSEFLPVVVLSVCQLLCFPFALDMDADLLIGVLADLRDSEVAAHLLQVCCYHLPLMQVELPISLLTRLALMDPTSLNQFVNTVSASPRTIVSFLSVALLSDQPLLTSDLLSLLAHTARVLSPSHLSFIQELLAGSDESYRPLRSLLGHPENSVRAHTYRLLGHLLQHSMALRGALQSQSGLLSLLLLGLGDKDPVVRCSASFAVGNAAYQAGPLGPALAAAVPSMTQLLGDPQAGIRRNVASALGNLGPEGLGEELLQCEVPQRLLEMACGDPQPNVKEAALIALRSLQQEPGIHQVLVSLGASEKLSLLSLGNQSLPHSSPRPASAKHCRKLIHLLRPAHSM
The assay can be described thus: Selectivity interaction (Ambit KINOMEscan and KiNATiv profiling in Jurkat cells) EUB0000090b STK36. The format is cell-based. The note with it: at 1 µM.

The target in assay [2] is T2, Serine/threonine-protein kinase Sgk1 (Homo sapiens) (UniProt O00141).
T2 sequence (whole entry): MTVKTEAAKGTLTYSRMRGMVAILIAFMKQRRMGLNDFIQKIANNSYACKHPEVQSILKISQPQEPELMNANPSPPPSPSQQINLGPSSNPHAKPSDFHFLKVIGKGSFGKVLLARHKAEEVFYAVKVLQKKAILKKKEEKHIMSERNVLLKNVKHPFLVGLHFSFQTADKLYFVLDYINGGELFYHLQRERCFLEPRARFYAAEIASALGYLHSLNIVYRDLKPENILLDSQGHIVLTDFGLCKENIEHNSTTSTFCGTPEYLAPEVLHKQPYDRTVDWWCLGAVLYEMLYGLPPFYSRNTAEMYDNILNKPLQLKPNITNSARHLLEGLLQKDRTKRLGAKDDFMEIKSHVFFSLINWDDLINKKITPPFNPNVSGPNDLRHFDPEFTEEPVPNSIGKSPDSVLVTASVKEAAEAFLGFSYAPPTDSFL
The assay can be described thus: Selectivity interaction (KinomeScan (DiscoverX)) EUB0000229b SGK1. As to conditions: at 10 µM.

Assay [3] has as its target 5'-AMP-activated protein kinase catalytic subunit alpha-2 (Homo sapiens) (UniProt P54646). The assay can be described thus: Selectivity interaction (ActivX KiNativ screen (kinase selectivity in THP-1 cell lysates)) EUB0000639a PRKAA2. Type of assay: subcellular. As to conditions: lysate.
In assay [4] the target is T3, Serine/threonine-protein kinase TAO3 (Homo sapiens) (UniProt Q9H2K8).
T3 sequence (whole entry): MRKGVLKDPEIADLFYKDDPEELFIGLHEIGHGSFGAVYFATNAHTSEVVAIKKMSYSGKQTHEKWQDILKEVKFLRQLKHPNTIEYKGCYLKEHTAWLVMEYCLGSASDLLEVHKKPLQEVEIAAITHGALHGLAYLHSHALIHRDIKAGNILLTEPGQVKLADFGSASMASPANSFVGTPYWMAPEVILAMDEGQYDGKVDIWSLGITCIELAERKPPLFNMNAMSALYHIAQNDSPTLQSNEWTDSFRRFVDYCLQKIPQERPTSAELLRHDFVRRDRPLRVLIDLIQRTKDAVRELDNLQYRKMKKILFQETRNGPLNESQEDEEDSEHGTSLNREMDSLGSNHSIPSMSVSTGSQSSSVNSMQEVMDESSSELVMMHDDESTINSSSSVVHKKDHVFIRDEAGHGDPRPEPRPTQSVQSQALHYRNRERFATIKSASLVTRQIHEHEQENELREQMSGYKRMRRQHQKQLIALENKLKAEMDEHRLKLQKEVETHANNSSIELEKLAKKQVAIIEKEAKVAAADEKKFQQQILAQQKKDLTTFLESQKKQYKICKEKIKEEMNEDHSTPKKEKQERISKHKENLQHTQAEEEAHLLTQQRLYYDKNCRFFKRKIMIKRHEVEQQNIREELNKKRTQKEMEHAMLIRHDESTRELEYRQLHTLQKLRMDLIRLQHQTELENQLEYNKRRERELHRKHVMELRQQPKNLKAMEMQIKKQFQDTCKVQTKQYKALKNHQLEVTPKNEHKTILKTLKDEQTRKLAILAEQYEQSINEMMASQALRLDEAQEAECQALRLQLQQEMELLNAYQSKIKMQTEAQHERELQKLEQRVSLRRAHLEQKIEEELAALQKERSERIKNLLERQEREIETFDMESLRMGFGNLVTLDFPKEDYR
The assay can be described thus: Selectivity interaction (ProQinase) EUB0000171b TAOK3.

Assay [5] has as its target Mitogen-activated protein kinase kinase kinase 1 (Homo sapiens, UniProt Q13233). The assay can be described thus: Selectivity interaction (KinomeScan (DiscoverX)) EUB0000092b MAP3K1. As to conditions: at 10 µM.
Assay [6] deals with Serine/threonine-protein kinase OSR1 (Homo sapiens) (UniProt O95747). Description: Selectivity interaction (KinomeScan (DiscoverX)) EUB0000595a OXSR1. As to conditions: at 10 µM.
Chain of Serine/threonine-protein kinase OSR1 (Homo sapiens) (O95747 2-527 limits assumed): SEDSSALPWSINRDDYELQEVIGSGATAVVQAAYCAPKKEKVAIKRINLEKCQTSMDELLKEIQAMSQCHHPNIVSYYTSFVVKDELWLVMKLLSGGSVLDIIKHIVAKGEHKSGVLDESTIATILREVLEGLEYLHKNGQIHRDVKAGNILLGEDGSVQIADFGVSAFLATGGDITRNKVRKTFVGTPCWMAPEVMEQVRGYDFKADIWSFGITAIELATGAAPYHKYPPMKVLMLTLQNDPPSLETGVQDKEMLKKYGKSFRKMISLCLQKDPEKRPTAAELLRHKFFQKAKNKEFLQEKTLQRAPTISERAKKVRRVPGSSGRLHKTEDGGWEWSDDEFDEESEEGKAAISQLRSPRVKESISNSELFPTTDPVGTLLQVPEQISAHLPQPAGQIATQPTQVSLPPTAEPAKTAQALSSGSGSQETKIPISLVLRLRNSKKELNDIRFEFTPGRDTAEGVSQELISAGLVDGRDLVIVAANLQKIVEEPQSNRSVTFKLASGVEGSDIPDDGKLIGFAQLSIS

Chain of 5'-AMP-activated protein kinase catalytic subunit alpha-2 (Homo sapiens) (P54646 whole entry, looked up): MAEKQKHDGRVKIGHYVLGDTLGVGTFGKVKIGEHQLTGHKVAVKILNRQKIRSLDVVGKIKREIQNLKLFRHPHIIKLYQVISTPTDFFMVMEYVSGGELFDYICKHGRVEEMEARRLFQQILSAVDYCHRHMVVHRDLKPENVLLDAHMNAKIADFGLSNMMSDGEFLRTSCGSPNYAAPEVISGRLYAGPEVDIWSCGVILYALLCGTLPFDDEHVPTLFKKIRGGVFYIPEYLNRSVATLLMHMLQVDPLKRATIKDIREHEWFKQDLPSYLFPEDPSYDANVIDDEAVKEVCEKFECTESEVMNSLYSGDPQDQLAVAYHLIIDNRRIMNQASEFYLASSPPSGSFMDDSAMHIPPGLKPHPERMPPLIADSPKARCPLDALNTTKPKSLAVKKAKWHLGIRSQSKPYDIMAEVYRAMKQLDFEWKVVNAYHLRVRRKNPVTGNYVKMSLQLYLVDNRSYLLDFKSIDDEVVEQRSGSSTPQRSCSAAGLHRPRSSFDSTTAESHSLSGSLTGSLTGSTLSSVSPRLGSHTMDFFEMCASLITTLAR
Chain of Mitogen-activated protein kinase kinase kinase 1 (Q13233 whole entry): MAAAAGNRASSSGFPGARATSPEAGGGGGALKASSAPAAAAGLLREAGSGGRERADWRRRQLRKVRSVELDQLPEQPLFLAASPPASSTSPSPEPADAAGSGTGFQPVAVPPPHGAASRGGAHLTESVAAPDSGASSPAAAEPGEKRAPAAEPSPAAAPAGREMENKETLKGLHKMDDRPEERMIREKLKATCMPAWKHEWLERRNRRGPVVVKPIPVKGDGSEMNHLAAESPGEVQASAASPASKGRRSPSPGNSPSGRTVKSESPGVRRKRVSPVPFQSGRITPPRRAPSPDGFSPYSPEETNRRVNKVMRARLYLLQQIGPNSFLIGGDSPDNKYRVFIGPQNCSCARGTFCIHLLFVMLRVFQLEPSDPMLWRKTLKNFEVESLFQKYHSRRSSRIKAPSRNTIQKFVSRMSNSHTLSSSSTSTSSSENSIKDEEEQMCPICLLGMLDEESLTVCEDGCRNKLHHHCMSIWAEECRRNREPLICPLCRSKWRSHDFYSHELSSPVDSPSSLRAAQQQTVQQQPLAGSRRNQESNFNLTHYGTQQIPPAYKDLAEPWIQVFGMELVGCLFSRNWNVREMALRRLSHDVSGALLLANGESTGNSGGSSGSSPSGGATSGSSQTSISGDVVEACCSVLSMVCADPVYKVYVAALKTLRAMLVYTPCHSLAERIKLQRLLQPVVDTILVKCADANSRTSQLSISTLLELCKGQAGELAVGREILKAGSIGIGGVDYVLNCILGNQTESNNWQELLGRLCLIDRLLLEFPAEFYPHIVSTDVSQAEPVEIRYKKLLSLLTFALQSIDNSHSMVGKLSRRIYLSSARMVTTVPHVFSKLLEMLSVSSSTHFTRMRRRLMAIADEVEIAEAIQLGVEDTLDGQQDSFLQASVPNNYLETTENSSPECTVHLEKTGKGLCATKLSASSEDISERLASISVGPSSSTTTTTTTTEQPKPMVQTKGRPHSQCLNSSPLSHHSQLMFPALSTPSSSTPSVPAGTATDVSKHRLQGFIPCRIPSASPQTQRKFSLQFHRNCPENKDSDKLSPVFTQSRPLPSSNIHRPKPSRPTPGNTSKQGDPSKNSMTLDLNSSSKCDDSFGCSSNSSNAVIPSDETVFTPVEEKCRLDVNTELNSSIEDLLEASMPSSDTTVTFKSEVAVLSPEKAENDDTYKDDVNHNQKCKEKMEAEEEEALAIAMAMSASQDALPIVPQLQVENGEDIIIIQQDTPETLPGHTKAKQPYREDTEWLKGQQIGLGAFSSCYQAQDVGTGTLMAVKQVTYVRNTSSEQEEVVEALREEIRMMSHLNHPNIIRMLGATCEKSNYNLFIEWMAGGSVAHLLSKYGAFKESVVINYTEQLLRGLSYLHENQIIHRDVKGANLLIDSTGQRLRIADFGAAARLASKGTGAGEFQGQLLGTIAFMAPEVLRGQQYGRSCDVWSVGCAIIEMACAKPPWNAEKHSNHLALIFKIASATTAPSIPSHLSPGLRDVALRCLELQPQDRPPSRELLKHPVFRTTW

Take `CN(C)C/C=C/C(=O)Nc1ccc(C(=O)N2CCCC(Nc3ncc(Cl)c(-c4c[nH]c5ccccc45)n3)C2)cc1` (stereo unspecified): the % of control in assay [1] was 85%. `COc1cc(N(C)c2ccnc3ccc(C(F)(F)F)cc23)cc(OC)c1OC`: the % binding in assay [2] was 97%.

`CC[C@@H]1[C@H](F)C(=O)N[C@@H]1COc1nccc2cc(C(N)=O)c(OC)cc12` [ZIMLOVISERTIB]: the % of inhibition in assay [3] (at 0.01 µM) was found to be 16%; in assay [3] (at 0.04 µM) it was 21.7%; in assay [3] (at 0.2 µM), 11.2%; in assay [3] (at 1 µM) it was 11.8%; in assay [3] (at 5 µM) it was 28.8%. On to `C=CC(=O)Nc1cccc(C(=O)Nc2ccc(Nc3cc(-c4[nH]c(SC)nc4C)ccn3)cc2)c1`, for which the figures for the % of control in assay [4] (at 1 µM) and in assay [4] (at 5 µM) were 95% and 72%, respectively. As for `CCC(=O)N1CCN(c2ccc(-n3c(=O)ccc4cnc5ccc(-c6cnc7ccccc7c6)cc5c43)cc2C(F)(F)F)CC1`, the % of control in assay [5] turned out to be 92%. Consider `COCC(=O)NC/C=C/c1ccc2ncnc(Nc3ccc(Oc4ccc(C)nc4)c(C)c3)c2c1` [CP-724714], for which the % of control in assay [6] worked out at 100%.

The record behind these values is ChEMBL document CHEMBL5465560, “Selectivity Literature for EUbOPEN Chemogenomic Library” (2024).
